From patent US20090035306A1 (KALYPSYS, INC., priority 2006, published 2009)
pEC50: −log10 of the molar value.

Assays:
[1] = target: T1, human TGR5 (Homo sapiens, UniProt Q8TDU6); assay: cAMP production assay in HEK293 cells stably expressing TGR5 (LANCE TR-FRET); format: cell-based; conditions: 30 minutes stimulation, read-out: cAMP Production in 293-TGR5 Cells EC50
T1 construct: expressed in transfected cells
T1 sequence (Q8TDU6 1-330): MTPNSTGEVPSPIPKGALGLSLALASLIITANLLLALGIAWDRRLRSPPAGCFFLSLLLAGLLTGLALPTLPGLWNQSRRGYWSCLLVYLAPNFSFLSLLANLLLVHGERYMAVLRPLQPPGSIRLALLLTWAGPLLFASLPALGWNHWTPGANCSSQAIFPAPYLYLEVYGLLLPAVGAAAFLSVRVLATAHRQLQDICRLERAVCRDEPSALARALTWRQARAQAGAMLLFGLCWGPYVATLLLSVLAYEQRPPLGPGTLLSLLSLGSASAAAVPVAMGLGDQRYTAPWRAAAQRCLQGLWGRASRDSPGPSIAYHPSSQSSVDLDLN
Summary of the method: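 HEK293 cells stably transfected with human TGR5, incubated overnight in DMEM with 0.1% FBS, then given IBMX (1 mM final) and stimulated with compounds for 30 minutes. cAMP measured by LANCE TR-FRET after 1-7 h detection at room temperature. EC50 values reported as ≦10 μM (+) or >10 μM (−).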

[2] = tested on: Mice; assay: Glucose tolerance test (GTT), glucose disposal; format: in vivo, mouse; conditions: 30 mg/kg
Experimental: Vehicle is CMC-Tween: 0.5% CMC+0.25% Tween 20 at an appropriate ml/kg. Dextrose dose per mouse=2 g dextrose/kg made from 0.5 g/ml stock dextrose solution. Compound 1 dose per mouse=30 mg/kg in CMC/Tween vehicle made from 4 mg/mL stock solution by adding 50 μL DMSO to 20 mg Compound 1, stirring to make a paste, adding 1 ml CMC/Tween with stirring, sonicating for 8 minutes on energy 05, and adjusting to 5 ml with CMC/Tween.
Glucose Tolerance Test (GTT)/Insulin Test
Mice (5 per group) were fasted at 6 am for an experiment at noon. Blood glucose was measured from tail nick blood using an Accucheck—Compact Monitoring Kit (Roche Diagnostics, Indianapolis Ind.). Baseline (time=−15 min) blood glucose concentration was determined for all mice and tail nick blood samples were collected. 2 g/kg dextrose (Hospira, Lake Forest, Ill.) was administered orally at time 0. Blood samples were collected from the following mice via tail nick blood draw (˜100 μL) into EDTA microtainer tubes at the following time points: −15, 0, 3, 6, 9, 12, 15, 20, 30 and 120 min. Terminal blood samples were collected from portal vein draws in three mice at t=20. Blood plasma was harvested from blood collected in EDTA microvettes by centrifugation (10 min at […]). Plasma was stored in −80 C freezer to be analyzed for other chemistry measurements.

[3] = tested on: Mice; assay: Glucose tolerance test (GTT), glucose disposal; format: in vivo, mouse; conditions: 30 mg/kg, 2 g/kg dextrose orally at time 0, time 60 min

SMILES: O=c1c2ccccc2nc(-c2ccc(F)cc2)n1NCc1ccc(Br)cc1 [Example 1]
- pEC50 [1]: ≥ 5.00
- Plasma Glucose, Mean ([2]; 2 g/kg dextrose orally at time 0, time 0 min): 220.4 mg/dL
- Plasma Glucose, Mean ([2]; 2 g/kg dextrose orally at time 0, time 3 min): 272.2 mg/dL
- Plasma Glucose, Mean ([2]; 2 g/kg dextrose orally at time 0, time 6 min): 332.6 mg/dL
- Plasma Glucose, Mean ([2]; 2 g/kg dextrose orally at time 0, time 9 min): 398.2 mg/dL
- Plasma Glucose, Mean ([2]; 2 g/kg dextrose orally at time 0, time 12 min): 427.2 mg/dL
- Plasma Glucose, Mean ([2]; 2 g/kg dextrose orally at time 0, time 15 min): 430.0 mg/dL
- Plasma Glucose, Mean ([2]; 2 g/kg dextrose orally at time 0, time 20 min): 425.9 mg/dL
- Plasma Glucose, Mean ([2]; 2 g/kg dextrose orally at time 0, time 30 min): 354.6 mg/dL
- Plasma Glucose, Mean ([2]; 2 g/kg dextrose orally at time 0, time 120 min): 213.2 mg/dL
- Plasma Glucose, Mean ([2]; 2 g/kg dextrose orally at time 0, time −15 min (baseline)): 170.0 mg/dL
- Plasma Glucose, AUC, Mean ([2]; glucose tolerance test, 0-120 min): 16400
- Plasma Glucose, Mean [3]: 294.2 mg/dL
